Data on 15 compounds can be found in patent US11066369B2, “N-(pyridin-2-yl)pyridine-sulfonamide derivatives and their use in the treatment of disease” (Novartis AG, priority 2016, dated 2021).

For experiment [1], the target named is T1, delF508-CFTR (Homo sapiens, UniProt P13569, DEL508-508).
T1 construct: functional activity of the CFTR channel (Chloride ion transport) in patient derived primary human bronchial epithelial cells; host or cells: patient-derived primary human bronchial epithelial cells (delF508-CFTR)
Kind of experiment: Measurement of delF508-CFTR functional activity in primary human bronchial epithelial cells (HBECs) using Multi-Transepithelial Clamp Circuit (MTECC-24) assay. Type of experiment: cell-based. The following applies: primary CF HBECs; for MTECC24 CFHBEC- Amax %: test compound added 24h before assay plus potentiator, relative to reference combination (2 μM corrector + 0.5 μM potentiator); for EC50: test compound added 24h before assay, in the presence of potentiator, mean of at least two replicates, read-out: MTECC24 CFHBEC- EC50. An excerpt:
[formula] Measurement of delF508-CFTR Functional Activity in Primary Human Bronchial Epithelial Cells (HBECs) Using Multi-Transepithelial Clamp Circuit (MTECC-24) Assay
This assay measures the functional activity of the CFTR channel (Chloride ion transport) in patient derived primary human bronchial epithelial cells with forskolin activation and in the presence of the CFTR corrector/potentiator combo.
Primary human delF508-CFTR bronchial epithelial cells were purchased from Asterand and cultured according to previously established methods (Fulcher et al. (2005) Methods Mol Med 107: 183-206). Briefly, vendor supplied cells were rapidly defrosted and added to a T175 flask in 50 mL growth media (Lonza BEBM media with Lonza BEGM singlequots). Media was replaced after 24h and then cells were fed every other day until cells were 80-90% confluent, at which point cells were cryopreserved. These P1 vials were thawed at 37° C. as needed and added to T175 flasks in 50 mL growth media at 5×10^5 cells/flask. Media was replaced after 24h, and then cells were fed every other day until 80-90% confluent. Cells were lifted with 5 mL accutase at 37° C. for 5 minutes, centrifuged at 1000 rpms for 5 min (300 g), and resuspended in differentiation media (50% BEBM in DMEM, BEGM singlequots, all trans retinoic acid (5×10^−8M)). Cells were then counted and cell suspension was added to collagen coated inserts at 3×10^4 cells/insert in 0.15 mL with 0.5 mL differentiation media on the basolateral side.
Apical and basolateral media were replaced on alternate days, and following day 7 (or when confluent plus 2 days), air liquid interface was established for approximately two weeks by removal of apical media. One day prior to use on the MTECC24 system (EP-Devices, EP Design, Belgium), 0.15 mL of warmed (37° C.) PBS was added to the apical surface of the cultures and returned to humidifier (37° C., 5% CO2 incubator) for 30 min before aspirating the apical surface to remove any mucus.
Compound treatments were then prepared. Compound dilutions, typically a 10 point concentration response with 1 in 3 dilution steps, were made in 100% DMSO before dilution 1 in 1000 into differentiation medium with a final DMSO concentration of 0.1% or 0.2% for the study. Compound containing medium was then transferred into the wells of a 24 well plate at 0.5 mL per well and warmed for 30 min in a 37° C. incubator prior to transferring washed inserts into the compound containing plates. Cells were incubated in compound containing medium (basolateral only) for 24h prior to measurement in the MTECC24 system.
Following 24 hr treatment, compound dilutions were prepared again, diluted 1 in 1000 into 37° C. assay medium (F-12 Coon's modified, 20 mM HEPES pH7.4 with TRIS Base, No FCS or bicarbonate). Cells which were treated for 24h with test compound were then transferred into plates containing 0.75 mL compound treatment in assay medium (basolateral) and 0.25 mL of the compound containing assay medium was added to the apical surface. The plates were then transferred to the heated plate compartments of the MTECC24 system for 45 min prior to measurements (this can also be done in a non-CO2 37° C. humidified incubator). Basolateral temperature should not exceed 36.5° C. and apical temperature should be approximately 35.5° C.
Modulators were added sequentially as follows while the MTECC24 instrument recorded the equivalent short circuit current (Ieq):
Prior to dilution into F-12 medium the stocks are as follows:
Amiloride stock is 10 mM in H2O
Forskolin Stock is 10 mM in 100% DMSO
(S)-3-amino-6-methoxy-N-(3,3,3-trifluoro-2-hydroxy-2-methylpropyl)-5-(trifluoromethyl)picolinamide is 0.5 mM stock in 100% DMSO
INH-172 (4-[[4-Oxo-2-thioxo-3-[3-trifluoromethyl)phenyl]-5-thiazolidinylidene]methyl]benzoic acid) stock is 30 mM in 100% DMSO
The data was normalized using the median signal from wells treated with 0.1% DMSO as a baseline. […]

Experiment [2] deals with T2, horseradish peroxidase (HRP) tagged delF508-CFTR (Homo sapiens, UniProt P13569, DEL508-508).
T2 construct: expressed in transfected cells
The experiment is described as follows: Measurement of delF508-CFTR-HRP surface expression in CFBE41o- cells.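 For DelF508-CFTR-HRP Amax %: percent efficacy relative to reference corrector lumacaftor.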 Type of experiment: cell-based. The conditions noted are these: delF508-CFTR-HRP surface expression, CFBE41o- cells; for Emax: read-out: DelF508-CFTR-HRP Amax %; for EC50: read-out: DelF508-CFTR-HRP EC50. In short, it runs like this:
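Surface-trafficked delF508-CFTR detected via extracellular HRP tag, read as luminescence from a membrane-impermeant substrate in CFBE41o- cells. Cells pre-induced 48h with 500 ng/mL doxycycline, then exposed 24h at 37° C to a 10-point, 3-fold dilution series from 10 μM (DMSO ≤0.5%). Triplicate dose-responses fitted logistically for EC50 after per-plate normalization; fold change versus reference compound.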

SMILES strings stand for the structures. Structures can show the parent of a compound that is named as a salt.

In general, EC50 refers to the concentration needed to bring the measured effect to its halfway point.

T1 sequence (P13569 with tags, fused parts or gaps DEL508-508): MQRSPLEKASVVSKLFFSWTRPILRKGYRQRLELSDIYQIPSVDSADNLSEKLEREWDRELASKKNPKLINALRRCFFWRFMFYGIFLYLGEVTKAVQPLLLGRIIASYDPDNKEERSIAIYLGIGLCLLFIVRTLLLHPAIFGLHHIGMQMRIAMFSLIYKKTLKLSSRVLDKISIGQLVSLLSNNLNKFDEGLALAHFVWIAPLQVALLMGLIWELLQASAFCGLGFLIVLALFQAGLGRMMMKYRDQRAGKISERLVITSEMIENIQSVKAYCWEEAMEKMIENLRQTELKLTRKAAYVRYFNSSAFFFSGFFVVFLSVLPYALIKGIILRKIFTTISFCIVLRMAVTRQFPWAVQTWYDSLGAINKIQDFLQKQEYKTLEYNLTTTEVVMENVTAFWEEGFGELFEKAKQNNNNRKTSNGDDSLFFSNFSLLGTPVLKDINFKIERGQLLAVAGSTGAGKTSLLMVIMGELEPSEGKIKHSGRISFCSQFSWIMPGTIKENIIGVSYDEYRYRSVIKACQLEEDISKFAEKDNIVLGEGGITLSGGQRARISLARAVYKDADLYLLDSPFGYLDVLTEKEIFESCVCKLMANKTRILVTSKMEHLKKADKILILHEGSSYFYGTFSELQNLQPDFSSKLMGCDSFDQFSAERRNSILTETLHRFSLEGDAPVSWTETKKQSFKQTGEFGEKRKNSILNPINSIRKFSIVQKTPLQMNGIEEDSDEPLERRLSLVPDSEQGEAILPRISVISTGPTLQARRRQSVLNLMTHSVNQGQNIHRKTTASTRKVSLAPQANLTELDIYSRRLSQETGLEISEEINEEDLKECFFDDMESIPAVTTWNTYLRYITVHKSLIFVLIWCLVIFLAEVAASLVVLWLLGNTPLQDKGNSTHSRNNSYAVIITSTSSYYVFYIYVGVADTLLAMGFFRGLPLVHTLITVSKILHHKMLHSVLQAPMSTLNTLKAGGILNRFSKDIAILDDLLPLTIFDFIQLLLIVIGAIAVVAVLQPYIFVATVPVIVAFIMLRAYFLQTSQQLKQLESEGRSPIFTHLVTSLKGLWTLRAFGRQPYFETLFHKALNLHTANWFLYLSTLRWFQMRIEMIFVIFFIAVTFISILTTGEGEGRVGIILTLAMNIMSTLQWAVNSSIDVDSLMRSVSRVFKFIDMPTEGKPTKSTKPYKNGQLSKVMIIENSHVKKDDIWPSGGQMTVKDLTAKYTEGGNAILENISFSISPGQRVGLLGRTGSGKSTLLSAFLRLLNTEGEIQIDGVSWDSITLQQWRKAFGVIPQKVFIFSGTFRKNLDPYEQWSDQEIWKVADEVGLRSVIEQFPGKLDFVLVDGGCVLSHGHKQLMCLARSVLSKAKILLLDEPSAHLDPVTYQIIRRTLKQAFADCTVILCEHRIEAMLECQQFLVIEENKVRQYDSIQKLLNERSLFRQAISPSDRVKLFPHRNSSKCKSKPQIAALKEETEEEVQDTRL
T2 sequence (P13569 with tags, fused parts or gaps DEL508-508): as above

With `CCCC1(C(=O)O)CCCN(c2cccc(S(=O)(=O)Nc3ccc(C(F)(F)F)c(-c4ccccc4CC)n3)n2)C1` (stereo not drawn) [Example 352, 1-(6-{[6-(2-ethylphenyl)-5-(trifluoromethyl)pyridin-2-yl]sulfamoyl}pyridin-2-yl)-3-propylpiperidine-3-carboxylic Acid], in experiment [1], the “MTECC24 CFHBEC- Amax %” value is reported as 82.2% and the EC50 stood at 0.808 nM. In experiment [2], the Emax is 714% and the EC50 worked out at 699 nM.

Regarding `Cc1ccccc1-c1nc(NS(=O)(=O)c2cccc(N3CCNC[C@H]3C)n2)ccc1C(F)(F)F` [Example 171, (R)-6-(2-methylpiperazin-1-yl)-N-(6-(o-tolyl)-5-(trifluoromethyl)pyridin-2-yl)pyridine-2-sulfonamide Hydrochloride], in experiment [1], the “MTECC24 CFHBEC- Amax %” value is reported as 66.2% and the EC50 came to 118 nM. Besides, in experiment [2], the Emax worked out at 505% and the EC50 stood at 2730 nM.

Consider `Cc1ccc(F)cc1-c1nc(NS(=O)(=O)c2cccc(O[C@@H]3COC[C@@H]3O)n2)ccc1Cl` [Example 289, N-(5-chloro-6-(5-fluoro-2-methylphenyl)pyridin-2-yl)-6-(((3R,4S)-4-hydroxytetrahydrofuran-3-yl)oxy)pyridine-2-sulfonamide], for which, in experiment [1], the “MTECC24 CFHBEC- Amax %” value is on record as 50.5% and the EC50 amounted to 12.1 nM. Moreover, in experiment [2], the Emax is 450% and the EC50 turned out to be 2360 nM.

As for `Cc1ccccc1-c1nc(NS(=O)(=O)c2cccc(O[C@@H]3COC[C@@H]3O)n2)ccc1C(F)(F)F` (single isomer, unassigned) [Example 296], in experiment [1], the “MTECC24 CFHBEC- Amax %” value is 54.3% and the EC50 is 30 nM. In addition, in experiment [2], the Emax was 255% and the EC50 was found to be 3220 nM.

For the compound `Cc1ccc(F)cc1-c1nc(NS(=O)(=O)c2ccnc(N3CCOC[C@H]3C)c2)ccc1C(F)(F)F` [Example 321, (R)—N-(6-(5-fluoro-2-methylphenyl)-5-(trifluoromethyl)pyridin-2-yl)-2-(3-methylmorpholino)pyridine-4-sulfonamide], in experiment [1], the “MTECC24 CFHBEC- Amax %” value is listed as 49.1% and the EC50 came out at 18.3 nM. In experiment [2], the Emax came to 413% and the EC50 was 1720 nM.

For `CC1(C(=O)O)CCN(c2cccc(S(=O)(=O)Nc3ccc(C(F)(F)F)c(-c4cccc(F)c4Cl)n3)n2)CC1` [Example 242, 1-(6-(N-(6-(2-chloro-3-fluorophenyl)-5-(trifluoromethyl)pyridin-2-yl)sulfamoyl)pyridin-2-yl)-4-methylpiperidine-4-carboxylic Acid], in experiment [1], the “MTECC24 CFHBEC- Amax %” value was found to be 63.2% and the 50% effective concentration (EC50) is 20.3 nM. In experiment [2], the Emax was determined as 468% and the EC50 worked out at 2920 nM.

In the case of `Cc1cccc(C)c1-c1cc(C(F)(F)F)cc(NS(=O)(=O)c2cccc(N3CCNCC3)n2)n1` [Example 133, N-(6-(2,6-dimethylphenyl)-4-(trifluoromethyl)pyridin-2-yl)-6-(piperazin-1-yl)pyridine-2-sulfonamide Hydrochloride], in experiment [1], the “MTECC24 CFHBEC- Amax %” value is recorded as 71.2% and the half-maximal effective concentration (EC50) was 97.9 nM. In addition, in experiment [2], the Emax is 570% and the EC50 turned out to be 2030 nM.

`Cc1ccccc1-c1nc(NS(=O)(=O)c2cccc(O[C@@H]3COC[C@@H]3O)n2)ccc1C(F)(F)F` (racemic) [Example 291, rac-6-{[(3RS,4SR)-4-hydroxyoxolan-3-yl]oxy}-N-[6-(2-methylphenyl)-5-(trifluoromethyl)pyridin-2-yl]pyridine-2-sulfonamide]: in experiment [1], the “MTECC24 CFHBEC- Amax %” value was found to be 73.6% and the EC50 stood at 13.3 nM. Further, in experiment [2], the Emax was 496% and the EC50 amounted to 2500 nM.

As to `Cc1ccccc1-c1nc(NS(=O)(=O)c2cccc(N3CC(C)(O)C3)n2)ccc1Br` [Example 207, N-(5-bromo-6-(o-tolyl)pyridin-2-yl)-6-(3-hydroxy-3-methylazetidin-1-yl)pyridine-2-sulfonamide], in experiment [1], the “MTECC24 CFHBEC- Amax %” value is 78.0% and the EC50 was found to be 19.4 nM. Further, in experiment [2], the Emax was found to be 503% and the EC50 was 2270 nM.

Turning to `Cc1ccccc1-c1nc(NS(=O)(=O)c2cccc(N3CCN[C@H](C)C3)n2)ccc1C(F)(F)F` [Example 167, (R)-6-(3-methylpiperazin-1-yl)-N-(6-(o-tolyl)-5-(trifluoromethyl)pyridin-2-yl)pyridine-2-sulfonamide Hydrochloride], in experiment [1], the “MTECC24 CFHBEC- Amax %” value was determined as 67.6% and the EC50 was determined as 85.5 nM. In experiment [2], the Emax was 317% and the EC50 was found to be 3710 nM.

On to `Cc1cccc(C)c1-c1nc(NS(=O)(=O)c2cccc(O[C@@H]3COC[C@@H]3O)n2)ccc1Cl` (racemic) [Example 290, rac-N-[5-chloro-6-(2,6-dimethylphenyl)pyridin-2-yl]-6-{[(3R,4S)-4-hydroxyoxolan-3-yl]oxy}pyridine-2-sulfonamide], for which, in experiment [1], the “MTECC24 CFHBEC- Amax %” value was 71.4% and the EC50 was 46.6 nM. Besides, in experiment [2], the Emax was 616% and the EC50 was 1440 nM.

As to `Cc1ccccc1-c1nc(NS(=O)(=O)c2cccc(N[C@H]3CCCNC3)n2)ccc1C(F)(F)F` [Example 105, (S)-6-(piperidin-3-ylamino)-N-(6-(o-tolyl)-5-(trifluoromethyl)pyridin-2-yl)pyridine-2-sulfonamide Hydrochloride], in experiment [1], the “MTECC24 CFHBEC- Amax %” value is on record as 58.1% and the EC50 is 222 nM. In experiment [2], the Emax came to 310% and the EC50 worked out at 3190 nM.

`Cc1ccc(F)cc1-c1nc(NS(=O)(=O)c2cccc(N3CCN[C@H](CO)C3)n2)ccc1C(F)(F)F` [Example 175, (S)—N-(6-(5-fluoro-2-methylphenyl)-5-(trifluoromethyl)pyridin-2-yl)-6-(3-(hydroxymethyl)piperazin-1-yl)pyridine-2-sulfonamide Hydrochloride]: in experiment [1], the “MTECC24 CFHBEC- Amax %” value is given as 63.4% and the EC50 came to 281 nM. Also, in experiment [2], the Emax was 530% and the EC50 worked out at 3270 nM.

As for `O=S(=O)(Nc1ccc(Cl)c(-c2cccc(F)c2Cl)n1)c1cccc(N2CC(O)C2)n1` [Example 229, N-(5-chloro-6-(2-chloro-3-fluorophenyl)pyridin-2-yl)-6-(3-hydroxyazetidin-1-yl)pyridine-2-sulfonamide], in experiment [1], the “MTECC24 CFHBEC- Amax %” value is reported as 69.0% and the EC50 amounted to 53.3 nM. For the same compound, in experiment [2], the Emax was 341% and the EC50 amounted to 4290 nM.

As for `Cc1ccc(F)cc1-c1nc(NS(=O)(=O)c2cccc(N3CC(O)C3)n2)ccc1C(F)(F)F` [Example 220, N-(6-(5-fluoro-2-methylphenyl)-5-(trifluoromethyl)pyridin-2-yl)-6-(3-hydroxyazetidin-1-yl)pyridine-2-sulfonamide], in experiment [1], the “MTECC24 CFHBEC- Amax %” value amounted to 58.6% and the EC50 was determined as 3.2 nM. In experiment [2], the Emax is 902% and the EC50 was 1610 nM.
